Laboratory results taken from patent publication US8907098B2, “Inhibitors of sphingosine kinase” (MERCK PATENT GmbH, priority 2009, dated 2014).

Each compound was assayed against modified SphK1 (Homo sapiens, UniProt Q9NYA1) (assay: SphK1 biochemical kinase assay (384-well flashplate)). Details: IC50 ranges; 5 nM modified SphK1, 1 μM ATP, 30° C., 120 min; read-out: SphK1 Inhibition IC50.
Method: The kinase assay is carried out as a 384-well flashplate assay.
5 nM modified SphK1, 800 nM omega-biotinyl-D-erythro-sphingosine and 1 μM ATP (with 0.3 μCi of ^33P-ATP/well) are incubated in a total volume of 50 μl (25 mM HEPES, 5 mM MgCl2, 1 mM dithiothreitol, 0.01% of Brij35, 0.1% of BSA (fatty acid-free), pH 7.4) without or with test substance (5-10 concentrations) at 30° C. for 120 min. The reaction is terminated using 25 μl of 200 mM EDTA solution, filtered off with suction at room temperature after 30 min, and the cavities are washed 3 times with 100 μl of 0.9% NaCl solution. The non-specific proportion of the kinase reaction (blank) is determined using 0.5 mM NaCl. Radioactivity is measured in topcount. IC50 values are calculated using RS1.

Sequence of modified SphK1 (Q9NYA1 whole entry): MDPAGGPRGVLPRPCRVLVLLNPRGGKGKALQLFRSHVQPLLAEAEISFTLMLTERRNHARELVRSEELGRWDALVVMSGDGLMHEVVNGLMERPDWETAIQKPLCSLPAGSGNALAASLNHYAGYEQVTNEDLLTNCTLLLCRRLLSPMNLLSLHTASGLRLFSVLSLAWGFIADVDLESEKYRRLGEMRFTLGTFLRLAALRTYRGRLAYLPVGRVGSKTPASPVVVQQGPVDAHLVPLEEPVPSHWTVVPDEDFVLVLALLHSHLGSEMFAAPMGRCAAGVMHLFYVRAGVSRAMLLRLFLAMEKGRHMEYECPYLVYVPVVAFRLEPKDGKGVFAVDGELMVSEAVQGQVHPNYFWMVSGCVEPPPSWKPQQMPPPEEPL

Compared with CCOC(=O)C1CCN(c2nc(-c3ccc4c(c3)C(C)(C)CCC4(C)C)cs2)CC1 [1-[4-(5,5,8,8-Tetramethyl-5,6,7,8-tetrahydronaphthalen-2-yl)thiazol-2-yl]piperidine-4-carboxylic acid ethyl ester], CC1(C)CCC(C)(C)c2cc(-c3csc(N4CCC(N)CC4)n3)ccc21 [1-[4-(5,5,8,8-Tetramethyl-5,6,7,8-tetrahydronaphthalen-2-yl)thiazol-2-yl]piperidin-4-ylamine] is lower in IC50: > 1000 nM for the first, 100 to 1000 nM for the second. The second is the more potent here.

CC1(C)CCC(C)(C)c2cc(-c3csc(N4CCC(C5CCNCC5)CC4)n3)ccc21 [1-[4-(5,5,8,8-Tetramethyl-5,6,7,8-tetrahydronaphthalen-2-yl)thiazol-2-yl]-4,4′-bipiperidinyl] and CC1(C)CCC(C)(C)c2cc(-c3csc(N4CCNCC4)n3)ccc21 [1-[4-(5,5,8,8-Tetramethyl-5,6,7,8-tetrahydronaphthalen-2-yl)thiazol-2-yl]piperazine] fall in the same range of IC50: 100 to 1000 nM for the first, 100 to 1000 nM for the second.

Compared with CC(=O)N1CCC(c2csc(-c3ccc4c(c3)C(C)(C)CCC4(C)C)n2)CC1, CN(C)C1CCN(c2nc(-c3ccc4c(c3)C(C)(C)CCC4(C)C)cs2)CC1 [Dimethyl-{1-[4-(5,5,8,8-tetramethyl-5,6,7,8-tetrahydronaphthalen-2-yl)thiazol-2-yl]piperidin-4-yl}amine] is lower in IC50: 100 to 1000 nM for the first, < 100 nM for the second. The second is the more potent here.

CC1(C)CCC(C)(C)c2cc(-c3csc(N4CC[C@H](NCCCO)C4)n3)ccc21 and CC1(C)CCC(C)(C)c2cc(-c3csc(N4CC[C@@H](NCCO)C4)n3)ccc21 cannot be ordered by IC50: > 1000 nM for the first, > 1000 nM for the second.

CC1(C)CCC(C)(C)c2cc(-c3csc(N4CCC(N5CCN(CCO)CC5)CC4)n3)ccc21 and CN1CCN(C2CCN(c3nc(-c4ccc5c(c4)C(C)(C)CCC5(C)C)cs3)CC2)CC1 [1-Methyl-4-{1-[4-(5,5,8,8-tetramethyl-5,6,7,8-tetrahydronaphthalen-2-yl)thiazol-2-yl]piperidin-4-yl}piperazine] fall in the same range of IC50: 100 to 1000 nM for the first, 100 to 1000 nM for the second.

CC1(C)CCC(C)(C)c2cc(-c3csc(N4CCC(CN)CC4)n3)ccc21 and CC1(C)CCC(C)(C)c2cc(-c3csc(N4CCC(CCN)CC4)n3)ccc21 fall in the same range of IC50: 100 to 1000 nM for the first, 100 to 1000 nM for the second.

CC1(C)CCC(C)(C)c2cc(-c3csc(N4CC[C@@H](N)C4)n3)ccc21 and CC1(C)CCC(C)(C)c2cc(-c3csc(N4CCC(N)C4)n3)ccc21 (stereo not drawn) [1-[4-(5,5,8,8-Tetramethyl-5,6,7,8-tetrahydronaphthalen-2-yl)thiazol-2-yl]pyrrolidin-3-ylamine] fall in the same range of IC50: 100 to 1000 nM for the first, 100 to 1000 nM for the second.

First: CC1(C)CCCc2cc(-c3csc(N4CCN(CCCCCO)CC4)n3)ccc21 [5-{4-[4-(5,5-Dimethyl-5,6,7,8-tetrahydronaphthalen-2-yl)thiazol-2-yl]-piperazin-1-yl}pentan-1-ol]
Second: CC1(C)CCCc2cc(-c3csc(N4CCN(CCCCO)CC4)n3)ccc21
The IC50 of the first is higher: > 1000 nM for the first, 100 to 1000 nM for the second.

CC1(C)CCC(C)(C)c2cc(-c3csc(C4CCCN(CCCO)C4)n3)ccc21 (stereo not drawn) and CC1(C)CCC(C)(C)c2cc(-c3csc(C4CCCN(CCCCO)C4)n3)ccc21 (stereo not drawn) cannot be ordered by IC50: > 1000 nM for the first, > 1000 nM for the second.

CC1(C)CCC(C)(C)c2cc(-c3csc(N4CCN(CCCO)CC4)n3)ccc21 and CC1(C)CCC(C)(C)c2cc(-c3csc(N4CCN(CCCCO)CC4)n3)ccc21 fall in the same range of IC50: 100 to 1000 nM for the first, 100 to 1000 nM for the second.

First: CC1(C)CCC(C)(C)c2cc(-c3csc(N4CCCC(CCCO)C4)n3)ccc21 (stereo not drawn)
Second: CC1(C)CCC(C)(C)c2cc(-c3csc(N4CCCC(CCO)C4)n3)ccc21 (stereo not drawn)
The IC50 of the first is higher: > 1000 nM for the first, 100 to 1000 nM for the second.

First: CC1(C)CCC(C)(C)c2cc(-c3csc(N4CCC(NC[C@@H](O)CO)CC4)n3)ccc21
Second: CC1(C)CCC(C)(C)c2cc(-c3csc(N4CCC(NC[C@H](O)CO)CC4)n3)ccc21
The IC50 of the first is higher: 100 to 1000 nM for the first, < 100 nM for the second. The second is the more potent here.

CC1(C)CCC(C)(C)c2cc(-c3csc(N4CCC5(CCNCC5)CC4)n3)ccc21 [3-[4-(5,5,8,8-Tetramethyl-5,6,7,8-tetrahydronaphthalen-2-yl)thiazol-2-yl]-3,9-diazaspiro[5.5]undecane] and CC1(C)CCC(C)(C)c2cc(-c3csc(N4CC[C@H](N)C4)n3)ccc21 fall in the same range of IC50: 100 to 1000 nM for the first, 100 to 1000 nM for the second.

CC1(C)CCc2cc(-c3csc(N4CCC(N)CC4)n3)ccc21 [1-[4-(1,1-Dimethylindan-5-yl)thiazol-2-yl]piperidin-4-ylamine] and CC1(C)CCCc2cc(-c3csc(N4CCC(N)CC4)n3)ccc21 fall in the same range of IC50: 100 to 1000 nM for the first, 100 to 1000 nM for the second.

CC1(C)CCCc2cc(-c3csc(N4CCNCC4)n3)ccc21 [1-[4-(5,5-Dimethyl-5,6,7,8-tetrahydronaphthalen-2-yl)thiazol-2-yl]-piperazine] and CC1(C)CCCc2cc(-c3csc(C4CCNC4)n3)ccc21 (stereo not drawn) [4-(5,5-Dimethyl-5,6,7,8-tetrahydronaphthalen-2-yl)-2-pyrrolidin-3-yl-thiazole] fall in the same range of IC50: 100 to 1000 nM for the first, 100 to 1000 nM for the second.

CC1(C)CCC(C)(C)c2cc(-c3csc(C4CCCNC4)n3)ccc21 (stereo not drawn) [3-[4-(5,5,8,8-Tetramethyl-5,6,7,8-tetrahydronaphthalen-2-yl)thiazol-2-yl]piperidine] and CC1(C)CCC(C)(C)c2cc(-c3csc(C4CCC(N)CC4)n3)ccc21 (stereo not drawn) fall in the same range of IC50: 100 to 1000 nM for the first, 100 to 1000 nM for the second.

CC1(C)CCC(C)(C)c2cc(-c3csc(N4CCN(CCCCCO)CC4)n3)ccc21 and CC1(C)CCC(C)(C)c2cc(-c3csc(N4CCN(CCO)CC4)n3)ccc21 fall in the same range of IC50: 100 to 1000 nM for the first, 100 to 1000 nM for the second.

Compared with CC1(C)CCC(C)(C)c2cc(-c3csc(N4CCC(C(=O)NCCO)CC4)n3)ccc21, CC1(C)CCC(C)(C)c2cc(-c3csc(N4CCCC(C(=O)NCCO)C4)n3)ccc21 (stereo not drawn) is lower in IC50: > 1000 nM for the first, 100 to 1000 nM for the second. The second is the more potent here.

First: CC1(C)CCC(C)(C)c2cc(-c3csc(C4CCCN(CCCCCO)C4)n3)ccc21 (stereo not drawn)
Second: CC1(C)CCC(C)(C)c2cc(-c3csc(C4CCCN(CCO)C4)n3)ccc21 (stereo not drawn)
The IC50 of the first is higher: > 1000 nM for the first, 100 to 1000 nM for the second. The second is the more potent here.

CC1(C)CCC(C)(C)c2cc(-c3csc(N4CCN(C5CCCCC5O)CC4)n3)ccc21 (stereo not drawn) and CC1(C)CCC(C)(C)c2cc(-c3csc(N4CCC(N5CCCC(O)C5)CC4)n3)ccc21 (stereo not drawn) [1′-[4-(5,5,8,8-Tetramethyl-5,6,7,8-tetrahydronaphthalen-2-yl)thiazol-2-yl]-1,4′-bipiperidinyl-3-ol] fall in the same range of IC50: 100 to 1000 nM for the first, 100 to 1000 nM for the second.

CC1(C)CCC(C)(C)c2cc(-c3ncc(C4CCNCC4)o3)ccc21 [4-[2-(5,5,8,8-Tetramethyl-5,6,7,8-tetrahydronaphthalen-2-yl)oxazol-5-yl]piperidine] and CC1(C)CCC(C)(C)c2cc(-c3csc(N4CCC(CCCO)CC4)n3)ccc21 cannot be ordered by IC50: > 1000 nM for the first, > 1000 nM for the second.

CC1(C)CCCc2cc(-c3csc(N4CCC(N(CCO)CCO)CC4)n3)ccc21 and CC1(C)CCC(C)(C)c2cc(-c3csc(N4CCC(N(CCO)CCO)CC4)n3)ccc21 [2-((2-Hydroxyethyl)-{1-[4-(5,5,8,8-tetramethyl-5,6,7,8-tetrahydronaphthalen-2-yl)thiazol-2-yl]piperidin-4-yl}amino)ethanol] fall in the same range of IC50: 100 to 1000 nM for the first, 100 to 1000 nM for the second.

First: CC1(C)CCC(C)(C)c2cc(-c3csc(N4CCCC(C(=O)NCCCO)C4)n3)ccc21 (stereo not drawn)
Second: CC1(C)CCC(C)(C)c2cc(-c3csc(N4CCC(NCCCO)CC4)n3)ccc21
The IC50 of the first is higher: > 1000 nM for the first, < 100 nM for the second.

CC1(C)CCCc2cc(-c3csc(C4CCN(CCCCCO)C4)n3)ccc21 (stereo not drawn) and CC1(C)CCCc2cc(-c3csc(C4CCN(CCCCO)C4)n3)ccc21 (stereo not drawn) [4-{3-[4-(5,5-Dimethyl-5,6,7,8-tetrahydronaphthalen-2-yl)thiazol-2-yl]-pyrrolidin-1-yl}butan-1-ol] fall in the same range of IC50: 100 to 1000 nM for the first, 100 to 1000 nM for the second.

First: CC1(C)CCC(C)(C)c2cc(-c3csc(N4CCC(N5CCOCC5)CC4)n3)ccc21
Second: CC1(C)CCC(C)(C)c2cc(-c3csc(N4CCC(N5CCC(N)C5)CC4)n3)ccc21 (stereo not drawn)
The IC50 of the first is higher: > 1000 nM for the first, 100 to 1000 nM for the second. The second is the more potent here.

CC1(C)CCc2cc(-c3csc(N4CCC(NCCO)CC4)n3)ccc21 [2-{1-[4-(1,1-Dimethylindan-5-yl)thiazol-2-yl]piperidin-4-ylamino}ethanol] and CC1(C)CCc2cc(-c3csc(N4CCC(NCCCO)CC4)n3)ccc21 [3-{1-[4-(1,1-Dimethylindan-5-yl)thiazol-2-yl]piperidin-4-ylamino}propan-1-ol] fall in the same range of IC50: 100 to 1000 nM for the first, 100 to 1000 nM for the second.

Compared with CC1(C)CCC(C)(C)c2cc(-c3csc(N4CCC(NC[C@@H](N)CO)CC4)n3)ccc21, CC1(C)CCC(C)(C)c2cc(-c3csc(N4CCC(NCC(O)CO)CC4)n3)ccc21 (stereo not drawn) is lower in IC50: 100 to 1000 nM for the first, < 100 nM for the second.

First: CC1(C)CCC(C)(C)c2cc(-c3csc(N4CCC(CCN5CCCC5)CC4)n3)ccc21 [4-(2-Pyrrolidin-1-ylethyl)-1-[4-(5,5,8,8-tetramethyl-5,6,7,8-tetrahydronaphthalen-2-yl)thiazol-2-yl]piperidine]
Second: CC1(C)CCC(C)(C)c2cc(-c3csc(N4CCC(NCCO)CC4)n3)ccc21
The IC50 of the first is higher: 100 to 1000 nM for the first, < 100 nM for the second. The second is the more potent here.

First: CC1(C)CCC(C)(C)c2cc(-c3csc(N4CCC(N(Cc5cc[nH]n5)Cc5cc[nH]n5)CC4)n3)ccc21 [Bis-(1H-pyrazol-3-ylmethyl)-{1-[4-(5,5,8,8-tetramethyl-5,6,7,8-tetrahydronaphthalen-2-yl)thiazol-2-yl]piperidin-4-yl}amine]
Second: CC1(C)CCC(C)(C)c2cc(-c3csc(N4CCC(NCc5c[nH]cn5)CC4)n3)ccc21 [(1H-Imidazol-4-ylmethyl)-{1-[4-(5,5,8,8-tetramethyl-5,6,7,8-tetrahydronaphthalen-2-yl)thiazol-2-yl]piperidin-4-yl}amine]
The IC50 of the first is higher: 100 to 1000 nM for the first, < 100 nM for the second.

CC1(C)CCC(C)(C)c2cc(-c3csc(N4CCN(CC(O)CO)CC4)n3)ccc21 (stereo not drawn) and Cn1cncc1CNC1CCN(c2nc(-c3ccc4c(c3)C(C)(C)CCC4(C)C)cs2)CC1 [(3-Methyl-3H-imidazol-4-ylmethyl)-{1-[4-(5,5,8,8-tetramethyl-5,6,7,8-tetrahydronaphthalen-2-yl)thiazol-2-yl]piperidin-4-yl}amine] fall in the same range of IC50: 100 to 1000 nM for the first, 100 to 1000 nM for the second.
